Test [1] has as its target T1, 5-Lipoxygenase enzyme from RBL-1 cells (Rattus norvegicus, UniProt P12527).
T1 construct: prepared as a 10,000 g supernatant from RBL-1 cells; endogenous in cells; host or cells: RBL-1 cells (10,000 g supernatant)
T1 sequence (P12527 1-673): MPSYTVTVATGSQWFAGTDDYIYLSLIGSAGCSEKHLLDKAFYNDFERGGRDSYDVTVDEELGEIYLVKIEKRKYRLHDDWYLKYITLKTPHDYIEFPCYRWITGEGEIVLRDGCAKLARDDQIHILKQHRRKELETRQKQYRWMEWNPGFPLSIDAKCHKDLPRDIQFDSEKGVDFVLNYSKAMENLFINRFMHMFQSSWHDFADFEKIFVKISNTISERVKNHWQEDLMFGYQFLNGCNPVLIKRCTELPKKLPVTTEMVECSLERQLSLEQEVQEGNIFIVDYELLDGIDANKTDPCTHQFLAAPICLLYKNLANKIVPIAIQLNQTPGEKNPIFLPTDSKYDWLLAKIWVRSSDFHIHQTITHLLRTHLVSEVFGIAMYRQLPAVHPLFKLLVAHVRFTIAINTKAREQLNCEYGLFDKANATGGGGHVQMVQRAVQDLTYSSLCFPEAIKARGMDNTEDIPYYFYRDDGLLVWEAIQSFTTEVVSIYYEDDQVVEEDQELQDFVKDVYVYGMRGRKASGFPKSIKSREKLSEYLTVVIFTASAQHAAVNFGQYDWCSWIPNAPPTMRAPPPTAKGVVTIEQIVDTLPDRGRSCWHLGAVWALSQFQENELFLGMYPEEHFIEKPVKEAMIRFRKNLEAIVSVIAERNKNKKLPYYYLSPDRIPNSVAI
Put plainly: RBL-1 5-lipoxygenase screen (cell free). The class given is biochemical. The settings on record: read-out: percentage inhibition of 5-lipoxygenase. How it is done:
RBL-1 5-LIPOXYGENASE SCREEN
5-Lipoxygenase enzyme was prepared as a 10,000 g supernatant from RBL-1 cells by the method of Jakschik [Jakschik, B. A., F. F. Sun, L. M. Lee, and M. M. Steinhoff, 1980, Biochem. Biophys. Res. Comm. 95, 103]. The 10,000 g supernatant was diluted with homogenization buffer to the equivalent of 1.5-2.5×10^7 cells. ml^-1 and made 2 mM with respect to CaCl2. Aliquots of 0.5 ml were then dispensed into tubes, and incubated at 29° C. with 5 μl ethanol or compound in ethanol at the desired concentration for 2 min. Then […] arachidonic acid was added in buffer to give a final concentration of 6.3 μM and 0.2 μCi per incubation, and the reaction continued at 29° C. for 2 min. The reaction was terminated by adding 1 ml of acetone and cooling on ice, 0.5 ml of ice-cold saline and 10 μl of 2N formic acid were added, and the mixture was extracted with 2×2 ml of chloroform. The extract was stored under N2 at -20° C. until analysis by chromatography. Activity was measured as the percentage of total radioactivity found in 5-HETE and 5,12-diHETE, and inhibition calculated as the decrease in formation of the sum of these two species in compound-treated incubates relative to control incubates.
This test is used to show inhibition of the 5-lipoxygenase enzyme in a mammalian RBL-1 cell free 5-lipoxygenase assay.

Test [2] concerns carrageenin-induced pleurisy. Put plainly: Carrageenin-induced pleurisy in the rat. The class given is in vivo. To be noted: dose of 25 mg/kg p.o., given 1 hour before and 24 and 48 hours after carrageenin. How it is done: CARRAGEENIN-INDUCED PLEURISY IN THE RAT
This model of monocyte accumulation is based on the method of R. Vinegar, J. F. Truax, J. L. Selph and F. A. Voelker [Federation Proceeding 41, 2588-2595, 1982].
0.2 ml of a 2.0% solution of λ-carrageenin (Viscarin 402) in saline was injected intrapleurally in anaesthetised rats (wt. approx. 175-200 g). Compounds were administered 1 hour before carrageenin and at 24 and 48 hours after carrageenin. 72 hours after carrageenin injection, 4.0 ml of EDTA solution (5 g EDTA in 100 ml of 0.9% saline and 325 mg phenol red added together with saline to 1 liter) was injected intrapleurally after killing the animals, and the exudate removed with a syringe through the diaphragm. Exudate volume was measured spectrophotometrically (560 nm) and cellular content estimated with a DNA assay [Karsten U. and Wollenberger A. Anal. Biochem. 77, 464-470, 1977].
This test is used to indicate anti-inflammatory activity against carrageenin-induced pleurisy in the rat. The compound of Example 1 was active at a dose of 25 mg/kg (p.o.).

Usually inhibition stands for the change of the read-out against control, counted positive when it falls.

Where a name gives a salt, the structure may show the parent alone.

Turning to `Cc1cc(C(C)(C)C)c(O)c2[nH]c(C(F)(F)F)nc12` [Example 1, 5-tert-Butyl-4-hydroxy-7-methyl-2-trifluoro-methylbenzimidazole], in test [1] (1 μM concentration), the inhibition at 1 µM is 93%. Moreover, the “anti-inflammatory activity against carrageenin-induced pleurisy in the rat” value in test [2] is reported as “active”.
As for `Cc1ccc(O)c2[nH]c(C(F)(F)F)nc12` [Example 2, 4-Hydroxy-7methyl-2-trifluoromethylbenzimidazole hydrochloride hydrate (4:4:1)], the inhibition at 20 µM in test [1] (20 μM concentration) was found to be 68%.

The values above are taken from patent US4755525A, “2-(fluoroalkyl)-benzimidazoles as inhibitors of 5-lipoxygenase” (Beecham Group p.l.c., priority 1985, dated 1988).
